In the supplement of paper PMC10307832:

Tests used:
Experiment in all cases: relative viability (nuclei count vs DMSO), 5 days (fraction); higher = more cells survive
XMD8-85 + Pemetrexed = compound: CN1CCN(CC1)C2=CC(=C(C=C2)NC3=NC=C4C(=N3)N(C5=CC=CC=C5C(=O)N4C)C)OC [XMD8-85] + Nc1nc2[nH]cc(CCc3ccc(C(=O)N[C@@H](CCC(=O)O)C(=O)O)cc3)c2c(=O)[nH]1 [Pemetrexed] (partner 0.2 µM)
Method in brief: (§1)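 Relative viability divides the nuclei count in treated wells by that in vehicle wells. Lung cancer cell lines were seeded in 1536-well plates, dosed by pin tool the next day, and fixed and stained after 5 days in one step with final 0.05% Triton X-100, 1% formaldehyde and 1 ug/ml Hoechst. Dosing was a single drug or a fixed anchor-drug dose plus five library-drug doses (not always all listed) in √10 steps, and values are medians of duplicate plates imaged at 4×.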

4EGI-1 + Linsitinib = compound: O=C(O)C(Cc1ccccc1[N+](=O)[O-])=NNc1nc(-c2ccc(Cl)c(Cl)c2)cs1 (mixture of isomers) [4EGI-1] + C[C@]1(O)C[C@@H](c2nc(-c3ccc4ccc(-c5ccccc5)nc4c3)c3c(N)nccn32)C1 [Linsitinib] (partner 1 µM)
Method in brief: as §1

XMD8-85 + Decitabine = compound: CN1CCN(CC1)C2=CC(=C(C=C2)NC3=NC=C4C(=N3)N(C5=CC=CC=C5C(=O)N4C)C)OC [XMD8-85] + Nc1ncn([C@H]2C[C@H](O)[C@@H](CO)O2)c(=O)n1 [Decitabine] (partner 2 µM)
Method in brief: as §1

XMD8-85 + Phenformin = compound: CN1CCN(CC1)C2=CC(=C(C=C2)NC3=NC=C4C(=N3)N(C5=CC=CC=C5C(=O)N4C)C)OC [XMD8-85] + N=C(N)NC(=N)NCCc1ccccc1 [Phenformin] (partner 250 µM)
Method in brief: as §1

NCI-H1792
relative viability (XMD8-85 + Pemetrexed; first compound 0.253 µM): 0.439
relative viability (XMD8-85 + Pemetrexed; first compound 0.8 µM): 0.889
relative viability (XMD8-85 + Pemetrexed; first compound 2.53 µM): 0.924
relative viability (XMD8-85 + Pemetrexed; first compound 8 µM): 0.818
relative viability (4EGI-1 + Linsitinib; first compound 0.5 µM): 0.613
relative viability (4EGI-1 + Linsitinib; first compound 1.581 µM): 0.444
relative viability (4EGI-1 + Linsitinib; first compound 5 µM): 0.48
relative viability (4EGI-1 + Linsitinib; first compound 15.81 µM): 0.441
relative viability (4EGI-1 + Linsitinib; first compound 50 µM): 0.472
relative viability (XMD8-85 + Decitabine; first compound 0.253 µM): 0.468
relative viability (XMD8-85 + Decitabine; first compound 0.8 µM): 0.525
relative viability (XMD8-85 + Decitabine; first compound 2.53 µM): 0.504
relative viability (XMD8-85 + Decitabine; first compound 8 µM): 0.361
relative viability (XMD8-85 + Phenformin; first compound 0.253 µM): 0.268
relative viability (XMD8-85 + Phenformin; first compound 2.53 µM): 0.257
relative viability (XMD8-85 + Phenformin; first compound 8 µM): 0.486
